Tested on: NCI-H196 SCLC complex tumor spheroid viability
Test: Anticancer human tumor NCI-H196 cell line growth inhibition;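 also: spheroids exposed to compounds for 7 days before readout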;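 as to viability, T/C: 100% = DMSO vehicle control wells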
Conditions: for IC50: curve of first compound; for viability, T/C: stronger effect = lower value
Outline: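 Complex spheroids of malignant cells with endothelial cells and mesenchymal stem cells; agents alone or combined, from near clinical Cmax (or 10 microM if unknown) down in half-log steps, 0.25% DMSO final.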

[1] = second compound 30 pM, first compound 0.0316 µM
[2] = second compound 30 pM, first compound 0.1 µM
[3] = second compound 30 pM, first compound 0.316 µM
[4] = second compound 30 pM, first compound 1 µM
[5] = second compound 30 pM, first compound 3.16 µM
[6] = second compound 30 pM, first compound 10 µM
[7] = second compound 94.9 pM, first compound 0.0316 µM
[8] = second compound 94.9 pM, first compound 0.1 µM
[9] = second compound 94.9 pM, first compound 0.316 µM
[10] = second compound 94.9 pM, first compound 1 µM
[11] = second compound 94.9 pM, first compound 3.16 µM
[12] = second compound 94.9 pM, first compound 10 µM
[13] = second compound 0.0003 µM, first compound 0.0316 µM
[14] = second compound 0.0003 µM, first compound 0.1 µM
[15] = second compound 0.0003 µM, first compound 0.316 µM
[16] = second compound 0.0003 µM, first compound 1 µM
[17] = second compound 0.0003 µM, first compound 3.16 µM
[18] = second compound 0.0003 µM, first compound 10 µM
[19] = second compound 0.000949 µM, first compound 0.0316 µM
[20] = second compound 0.000949 µM, first compound 0.1 µM
[21] = second compound 0.000949 µM, first compound 0.316 µM
[22] = second compound 0.000949 µM, first compound 1 µM
[23] = second compound 0.000949 µM, first compound 3.16 µM
[24] = second compound 0.000949 µM, first compound 10 µM
[25] = second compound 0.003 µM, first compound 0.0316 µM
[26] = second compound 0.003 µM, first compound 0.1 µM
[27] = second compound 0.003 µM, first compound 0.316 µM
[28] = second compound 0.003 µM, first compound 1 µM
[29] = second compound 0.003 µM, first compound 3.16 µM
[30] = second compound 0.003 µM, first compound 10 µM

`CC1COCCN1c1cc(-c2ccnn2C)c2ccnc(-c3ccn[nH]3)c2n1` (stereo not given) + COc1cc2c(cc1O)CCNC21CSC2c3c(OC(C)=O)c(C)c4c(c3C(COC1=O)N1C(O)C3Cc5cc(C)c(OC)c(O)c5C(C21)N3C)OCO4 gave an IC50 (second compound 30 pM) of 4.19 µM, an IC50 (second compound 94.9 pM) of 3.43 µM and an IC50 (second compound 0.0003 µM) of 2.5 µM. The IC50 (second compound 0.000949 µM) was 0.711 µM, the IC50 (second compound 0.003 µM) was less than 0.0316 µM and the viability, T/C [1] was 90.5%. The viability, T/C [2] was 74.5%, the viability, T/C [3] was 67.2% and the viability, T/C [4] was 56.7%. For the same molecule, the viability, T/C [5] was 51.8%, the viability, T/C [6] was 46.3% and the viability, T/C [7] was 89.1%. It also gave a viability, T/C [8] of 73.8%, a viability, T/C [9] of 67% and a viability, T/C [10] of 58%. For the same molecule, the viability, T/C [11] was 50.8%, the viability, T/C [12] was 44.5% and the viability, T/C [13] was 81.8%. For the same molecule, the viability, T/C [14] was 67.1%, the viability, T/C [15] was 64% and the viability, T/C [16] was 59.2%. The viability, T/C [17] was 45.9%, the viability, T/C [18] was 42.5% and the viability, T/C [19] was 72.2%. It also gave a viability, T/C [20] of 64%, a viability, T/C [21] of 56.3% and a viability, T/C [22] of 51.7%. For the same molecule, the viability, T/C [23] was 31.9%, the viability, T/C [24] was 32.6% and the viability, T/C [25] was 9.26%. The viability, T/C [26] was 6.28%, the viability, T/C [27] was 10.1% and the viability, T/C [28] was 3.62%. For the same molecule, the viability, T/C [29] was 0.78% and the viability, T/C [30] was 0.39%.

`COc1cc(C)[nH]c(=O)c1CN1CCc2c(Cl)cc(C(OC)C3COC3)c(Cl)c2C1=O` (stereo not given) + COc1cc2c(cc1O)CCNC21CSC2c3c(OC(C)=O)c(C)c4c(c3C(COC1=O)N1C(O)C3Cc5cc(C)c(OC)c(O)c5C(C21)N3C)OCO4 gave an IC50 (second compound 30 pM) greater than 10 µM, an IC50 (second compound 94.9 pM) greater than 10 µM and an IC50 (second compound 0.0003 µM) greater than 10 µM. For the same molecule, the IC50 (second compound 0.000949 µM) was greater than 10 µM, the IC50 (second compound 0.003 µM) was less than 0.0316 µM and the viability, T/C [1] was 104%. The viability, T/C [2] was 101%, the viability, T/C [3] was 95.8% and the viability, T/C [4] was 101%. It also gave a viability, T/C [5] of 97.8%, a viability, T/C [6] of 98.4% and a viability, T/C [7] of 107%. The viability, T/C [8] was 96.5%, the viability, T/C [9] was 103% and the viability, T/C [10] was 95.4%. It also gave a viability, T/C [11] of 99.1%, a viability, T/C [12] of 104% and a viability, T/C [13] of 100%. For the same molecule, the viability, T/C [14] was 105%, the viability, T/C [15] was 98.8% and the viability, T/C [16] was 97.1%. It also gave a viability, T/C [17] of 94.6%, a viability, T/C [18] of 97.8% and a viability, T/C [19] of 83.7%. The viability, T/C [20] was 80.3%, the viability, T/C [21] was 83% and the viability, T/C [22] was 80.9%. For the same molecule, the viability, T/C [23] was 87%, the viability, T/C [24] was 77.9% and the viability, T/C [25] was 18.9%. For the same molecule, the viability, T/C [26] was 5.38%, the viability, T/C [27] was 7.56% and the viability, T/C [28] was 12.5%. For the same molecule, the viability, T/C [29] was 5.22% and the viability, T/C [30] was 2.69%.

Reference: PubChem BioAssay AID1845208 (Molecular Pharmacology Branch, DTP, NCI, 2023)
